Measured values: PMC11822212, “High-throughput screening identifies Aurora kinase B as a critical therapeutic target for Merkel cell carcinoma” (Nature Communications, 2025)
Counter-ions that a name gives are not always drawn. Like-named read-outs stand apart in the source and are kept apart here.

Key:
[1] = system: MCC cell lines (WAGA, MKL-1, MKL-2, MCC13, MCC26, UISO); test: qHTS cell viability, all six MCC cell lines as a group (mean AUC, MCC.avg); format: cell-based, human
MCC13 cells (VN-MCC) = test: qHTS cell viability (CellTiter-Glo, 72 h; primary and follow-up small molecule screen); format: cell-based, human
CRL-7250 cells = test: qHTS cell viability (CellTiter-Glo, 72 h; primary screen), control cell line; format: cell-based
MCC26 cells (VN-MCC) = test: qHTS cell viability (CellTiter-Glo, 72 h; primary and follow-up small molecule screen); format: cell-based, human
MKL-2 cells (VP-MCC) = test: as above; format: cell-based, human
WAGA cells (VP-MCC) = test: as above; format: cell-based, human
MKL-1 cells (VP-MCC) = test: as above; format: cell-based, human
UISO cells (VN-MCC) = test: as above; format: cell-based, human
HEK293T cells = test: qHTS cell viability (CellTiter-Glo, 72 h; primary screen), control cell line; format: cell-based, human
[2] = system: six MCC cell lines and four control cell lines; test: qHTS cell viability, all 10 cell lines screened; format: cell-based
[3] = system: VP-MCC cell lines (WAGA, MKL-1, MKL-2); test: qHTS cell viability, VP-MCC cell lines as a group (mean AUC, VP.MCC.avg); format: cell-based, human
NIH-3T3 cells = test: qHTS cell viability (CellTiter-Glo, 72 h; primary screen), control cell line; format: cell-based, mouse
[4] = system: control cell lines (HACAT, HEK293T, CRL-7250, NIH-3T3); test: qHTS cell viability, control cell lines as a group (mean AUC, Control.avg); format: cell-based
HACAT cells = test: qHTS cell viability (CellTiter-Glo, 72 h; primary screen), control cell line; format: cell-based, human
[5] = system: VN-MCC cell lines (MCC13, MCC26, UISO); test: qHTS cell viability, VN-MCC cell lines as a group (mean AUC, VN.MCC.avg); format: cell-based, human
[6] = MIPE library, 11-point DRC, sheet S2E
[7] = MIPE library, 11-point DRC, control cell line, sheet S2E

CN1CCCC(n2nc(Cc3ccc(Cl)cc3)c3ccccc3c2=O)CC1 (stereo not shown) [Azelastine hydrochloride]
MCC_Avg_AUC ([1]; MIPE library, mean AUC of six MCC cell lines, sheet S2E): 373.345 | MCC13_AUC (MCC13 cells (VN-MCC); [6]): 451.766 | Area under the dose-response curve (AUC) MCC13 Replicate 1 (MCC13 cells (VN-MCC); follow-up screen, MCC13, replicate 1): 500.3 | Area under the dose-response curve (AUC) MCC13 Replicate 2 (MCC13 cells (VN-MCC); follow-up screen, MCC13, replicate 2): 476.4 | Area under the dose-response curve (AUC) MCC13 Replicate 3 (MCC13 cells (VN-MCC); follow-up screen, MCC13, replicate 3): 479.3 | CRL7250_AUC (CRL-7250 cells; [7]): 443.828 | MCC26_AUC (MCC26 cells (VN-MCC); [6]): 431.003 | Area under the dose-response curve (AUC) MCC26 Replicate 1 (MCC26 cells (VN-MCC); follow-up screen, MCC26, replicate 1): 450.4 | Area under the dose-response curve (AUC) MCC26 Replicate 2 (MCC26 cells (VN-MCC); follow-up screen, MCC26, replicate 2): 432.6 | Area under the dose-response curve (AUC) MCC26 Replicate 3 (MCC26 cells (VN-MCC); follow-up screen, MCC26, replicate 3): 475.6 | MKL2_AUC (MKL-2 cells (VP-MCC); [6]): 320.643 | Area under the dose-response curve (AUC) MKL-2 Replicate 1 (MKL-2 cells (VP-MCC); follow-up screen, MKL-2, replicate 1): 463.4 | Area under the dose-response curve (AUC) MKL-2 Replicate 2 (MKL-2 cells (VP-MCC); follow-up screen, MKL-2, replicate 2): 469.5 | Area under the dose-response curve (AUC) MKL-2 Replicate 3 (MKL-2 cells (VP-MCC); follow-up screen, MKL-2, replicate 3): 473.5 | WAGA_AUC (WAGA cells (VP-MCC); [6]): 268.398 | Area under the dose-response curve (AUC) WAGA Replicate 1 (WAGA cells (VP-MCC); follow-up screen, WAGA, replicate 1): 515.6 | Area under the dose-response curve (AUC) WAGA Replicate 2 (WAGA cells (VP-MCC); follow-up screen, WAGA, replicate 2): 481.7 | Area under the dose-response curve (AUC) WAGA Replicate 3 (WAGA cells (VP-MCC); follow-up screen, WAGA, replicate 3): 478.9 | MKL1_AUC (MKL-1 cells (VP-MCC); [6]): 341.965 | Area under the dose-response curve (AUC) MKL-1 Replicate 1 (MKL-1 cells (VP-MCC); follow-up screen, MKL-1, replicate 1): 494.5 | Area under the dose-response curve (AUC) MKL-1 Replicate 2 (MKL-1 cells (VP-MCC); follow-up screen, MKL-1, replicate 2): 511.5 | Area under the dose-response curve (AUC) MKL-1 Replicate 3 (MKL-1 cells (VP-MCC); follow-up screen, MKL-1, replicate 3): 475.2 | UISO_AUC (UISO cells (VN-MCC); [6]): 426.293 | Area under the dose-response curve (AUC) UISO Replicate 1 (UISO cells (VN-MCC); follow-up screen, UISO, replicate 1): 472.1 | Area under the dose-response curve (AUC) UISO Replicate 2 (UISO cells (VN-MCC); follow-up screen, UISO, replicate 2): 488.6 | Area under the dose-response curve (AUC) UISO Replicate 3 (UISO cells (VN-MCC); follow-up screen, UISO, replicate 3): 481.1 | HEK293T_AUC (HEK293T cells; [7]): 458.798 | Control-MCC ([2]; MIPE library, Control AUC minus MCC AUC (therapeutic window), sheet S2E): 86.1174 | Control-VP-MCC ([3]; MIPE library, Control AUC minus VP-MCC AUC (therapeutic window), sheet S2E): 149.127 | VP-MCC_Avg_AUC ([3]; MIPE library, mean AUC of VP-MCC cell lines, sheet S2E): 310.335 | NIH3T3_AUC (NIH-3T3 cells; [7]): 471.996 | Control_Avg_AUC ([4]; MIPE library, mean AUC of control cell lines, sheet S2E): 459.462 | HACAT_AUC (HACAT cells; [7]): 463.226 | Control-VN-MCC ([5]; MIPE library, Control AUC minus VN-MCC AUC (therapeutic window), sheet S2E): 23.1078 | VN-MCC_Avg_AUC ([5]; MIPE library, mean AUC of VN-MCC cell lines, sheet S2E): 436.354

CC(C)(C)CC(C)(C)c1ccc(OCCOCC[N+](C)(C)Cc2ccccc2)cc1 [Benzethonium chloride]
MCC_Avg_AUC [1]: 398.298 | Area under the dose-response curve (AUC) MCC13 Replicate 1 (MCC13 cells (VN-MCC)): 446.4 | Area under the dose-response curve (AUC) MCC13 Replicate 2 (MCC13 cells (VN-MCC)): 458.8 | Area under the dose-response curve (AUC) MCC13 Replicate 3 (MCC13 cells (VN-MCC)): 480.2 | MCC13_AUC (MCC13 cells (VN-MCC)): 470.477 | CRL7250_AUC (CRL-7250 cells): 423.584 | Area under the dose-response curve (AUC) MCC26 Replicate 1 (MCC26 cells (VN-MCC)): 408.1 | Area under the dose-response curve (AUC) MCC26 Replicate 2 (MCC26 cells (VN-MCC)): 395.1 | Area under the dose-response curve (AUC) MCC26 Replicate 3 (MCC26 cells (VN-MCC)): 422.7 | MCC26_AUC (MCC26 cells (VN-MCC)): 468.704 | Area under the dose-response curve (AUC) MKL-2 Replicate 1 (MKL-2 cells (VP-MCC)): 357.2 | Area under the dose-response curve (AUC) MKL-2 Replicate 2 (MKL-2 cells (VP-MCC)): 340.8 | Area under the dose-response curve (AUC) MKL-2 Replicate 3 (MKL-2 cells (VP-MCC)): 365.0 | MKL2_AUC (MKL-2 cells (VP-MCC)): 335.827 | Area under the dose-response curve (AUC) WAGA Replicate 1 (WAGA cells (VP-MCC)): 389.4 | Area under the dose-response curve (AUC) WAGA Replicate 2 (WAGA cells (VP-MCC)): 374.6 | Area under the dose-response curve (AUC) WAGA Replicate 3 (WAGA cells (VP-MCC)): 382.0 | WAGA_AUC (WAGA cells (VP-MCC)): 367.918 | Area under the dose-response curve (AUC) MKL-1 Replicate 1 (MKL-1 cells (VP-MCC)): 338.0 | Area under the dose-response curve (AUC) MKL-1 Replicate 2 (MKL-1 cells (VP-MCC)): 346.5 | Area under the dose-response curve (AUC) MKL-1 Replicate 3 (MKL-1 cells (VP-MCC)): 373.3 | MKL1_AUC (MKL-1 cells (VP-MCC)): 344.624 | Area under the dose-response curve (AUC) UISO Replicate 1 (UISO cells (VN-MCC)): 363.2 | Area under the dose-response curve (AUC) UISO Replicate 2 (UISO cells (VN-MCC)): 392.4 | Area under the dose-response curve (AUC) UISO Replicate 3 (UISO cells (VN-MCC)): 362.8 | UISO_AUC (UISO cells (VN-MCC)): 402.239 | HEK293T_AUC (HEK293T cells): 369.337 | Control-MCC [2]: 24.505 | Control-VP-MCC [3]: 73.3469 | VP-MCC_Avg_AUC [3]: 349.456 | NIH3T3_AUC (NIH-3T3 cells): 461.959 | Control_Avg_AUC [4]: 422.803 | HACAT_AUC (HACAT cells): 436.332 | Control-VN-MCC [5]: -24.3368 | VN-MCC_Avg_AUC [5]: 447.14
